Source: patent US20260243686A1, “REAL TIME DETECTION AND QU[…] PLANT INNATE IMMUNITY RESPONSE USING RAMAN SPECTROSCOPY” (TEMASEK LIFE SCIENCES […], priority 2021, published 2026)
Ends that are not written are not given here.

Key:
[1] = tested on: PTI response in Arabidopsis thaliana (Col-0) leaves; assay: Raman spectroscopy of elicitor-infiltrated leaves, Elicitor Response Factor (ERF); format: in vivo; conditions: for ERF (Elicitor Response Factor) value: WT Col-0, 1 μM elicitor, proximal region, 10 hpi; for ERF value: proximal region (PR), 48 and 72 hpi
Experimental: Plant growth and elicitor/pathogen infiltration: Arabidopsis thaliana (Col-0) wild-type (WT) and mutants including fls2 (salk_062054), efr-2 (salk_068675), bak1 (salk_116202), bik1 (salk_005291), rbohd (salk_083046), pub12/13 (Zhou et al., 2018) and pub25/26 (Wang et al., 2018) were used. Ten-day old seedlings grown on soil were transferred to a growth room at 70% humidity and 21° C. with a 10-h-light/14-h-dark photoperiod (short-day condition). Light intensity was 100 μmol/m^2s^−1. Five to 6 week-old plants with about 17-18 leaves were used. Flg22 contains the 22-amino acid sequence […] (SEQ ID NO:1) corresponding to a conserved motif of the amino terminus of flagellin from Pseudomonas species. Elf18 contains the sequence Ac[…] (SEQ ID NO:2) corresponding to the conserved N-terminal 18-amino acid peptide of the bacterial protein elongation factor Tu (EF-Tu). These peptides (Axil Scientific Pte Ltd) were dissolved in sterile H2O to a concentration of 5 mM and aliquots of 100 μM stock solution were stored at −20° C. 3-hydroxydecanoic acid (Sigma, H3648) (Kutschera et al., 2019) was dissolved in ethanol to a concentration of 5 mM, and Chitin, GlcNacβ1-4[GlcNacβ1-4GlcNAc]5GlcNAc (ELICITYL, GLU437) was dissolved in water to a concentration of 5 mM. Aliquots of 100 μM stock solutions were stored at −20° C.
Custom-built Raman spectroscopy system and spectral data analysis: The Raman spectroscopy system with an 830 nm excitation wavelength was previously described (Huang et al., 2020). The Raman shift axis was calibrated using a polystyrene sample (Creely et al., 2005) and Raman spectra were recorded in the range of 400 cm^−1-1700 cm^−1. The 830 nm excitation wavelength has the advantage of deeper penetration depth and generating comparatively lower fluorescence background signal from the leaf tissue, resulting in spectra with a higher signal to noise ratio (SNR). The pre-processing of the Raman spectra consisted of cosmic ray removal and smoothing with the Savitzky-Golay filter function (MATLAB Inc., USA) with 5th order polynomial and frame length of 11. The Raman spectra presented here were obtained after removing any residual fluorescence background using a polynomial subtraction method with non-negative constraints (Lieber & Mahadevan-Jansen, 2003).
For Arabidopsis, two plants from each independent biological sample were investigated (Huang et al., 2020). The 7th or 8th leaf of 5-6 week-old plants were used for infiltrations (FIGS. 1A-1E) At the designated time after infiltrations, leaf discs (6 mm diameter) were excised with a puncher from regions proximal to the infiltrated sites (FIG. 2A). Two leaf discs were obtained from each elicitor-treated leaf, one from the left and the other from the right side of the central leaf vein. A total of 4 leaf discs were analyzed for each genotype per experiment. The leaf discs were placed with a drop of water between a fused silica slide of thickness 0.5 mm and a fused silica coverslip, which was 100 μm thick. Three locations were measured in each leaf disc, with 5 Raman spectra acquired per location and an exposure time of 10 s per spectrum. Thus, an average Raman spectrum of an independent biological sample was obtained from the mean of total 60 Raman spectra. The experiments were repeated with 3-4 independent biological samples.
A custom-built near infrared excitation Raman instrument (FIG. 1E) to measure Raman spectra from mock- or elicitor-infiltrated leaf samples (FIGS. 2B-2C). […]

[2] = tested on: PTI-specific marker genes in Arabidopsis leaves; assay: Gene expression analysis of PTI marker genes by qRT-PCR; format: in vivo, Arabidopsis thaliana; conditions: infiltrated leaves, 1.0 μM elicitor
Experimental: RNA extraction and gene expression analysis by qRT-PCR: Total RNA was extracted from the entire infiltrated leaf using RNeasy plant mini kit (74104; Qiagen) with DNase I (79254; Qiagen) treatment. cDNA synthesis and RT-PCR were performed as described (Park et al., 2019). Expression of the Arabidopsis Act2 (At3g18780) was used as an internal control. Primer pairs for quantitative RT-PCR were designed using Primer-BLAST (https://www.ncbi.nlm.nih.gov/tools/primer-blast/index.cgi) or manually by eye.
flg22 and elf18 were used to induce plant innate immunity responses without related pathogenic symptoms (Bektas & Eulgem, 2015). To reduce variability between biological samples, Arabidopsis wild-type (Col-0) and mutant plants were grown under short-day conditions for about 5-6 weeks with about 17-18 leaves (Farmer et al., 2013; Kurenda et al., 2019) (FIG. 1A). The abaxial side of leaf 7th or 8th was infiltrated with a needleless syringe containing (50 μl) water, 1.0 μM flg22 or 1.0 μM elf18 (FIG. 1B). […] However, compared to mock infiltration, infiltration of either elicitor induced expression of PTI-specific marker genes of the PTI pathway but with different kinetics (FIGS. 3A-3C). […] Expression of most activated genes returned to basal levels by 24 hours (FIGS. 3A-3C) although several genes (PR1, WRYK29, and WRKY53) still maintained high expression levels at this time point.

[3] = tested on: PTI response in Arabidopsis thaliana (Col-0) leaves; assay: Raman spectroscopy of elicitor-infiltrated leaves, Elicitor Response Factor (ERF); format: in vivo; conditions: WT, 1 μM elicitor, distal region (DR)
[4] = fls2 mutant, 24 hpi, 1 μM elicitor

Substance | ERF (Elicitor Response Factor) value [1] | increase of ERF value from 10 hpi to 24 hpi ([1]; WT, 1 μM elicitor) | ERF value ([1]; WT, 1 μM elicitor) | Raman peak intensity at 789.7 cm^−1 ([1]; WT, 24 hpi) | Raman/ERF response ([1]; efr-2 mutant, 24 hpi, 1 μM elicitor) | Raman/ERF response [1, 4] | innate immunity response (gene expression and callose deposition data together) [2] | ERF value [3] | Raman peak at 1065 cm^−1 ([1]; WT, 24 hpi)
QRLSTGSRINSAKDDAAGLQIA (SEQ ID NO:1) (listed as Pseudomonas sp.) [flg22] | 1.12×10^4 | about 8 times | decreased to almost zero | statistically significant change | responded | refractory | induced rapid and robust innate immunity response | Low ERF values | 
AcSKEKFERTKPHVNVGTIG (SEQ ID NO:2) (Ac-SKEKFERTKPHVNVGTIG; listed as Pseudomonas sp.) [elf18, conserved N-terminal 18-amino acid peptide of the bacterial protein elongation factor Tu (EF-Tu)] | 0.63×10^4 |  | decreased to almost zero |  |  | remained responsive | induced rapid and robust innate immunity response | Lower ERF value | specifically resulted in changes
